{"source": "ChEMBL document CHEMBL4049384", "about": "“Synthesis and evaluation of an injectable everolimus prodrug” (Bioorg Med Chem Lett, 2017)", "key": {"[1]": {"tested_on": "Blood", "assay": "Prodrug conversion in Sprague-Dawley rat blood assessed as everolimus level at 2.724 mg/kg, iv at 0.5 hrs post dose by HPLC method", "type": "ADME, organism-based", "conditions": "in vivo"}, "[2]": {"tested_on": "Blood", "assay": "Prodrug conversion in Sprague-Dawley rat blood assessed as everolimus level at 2.724 mg/kg, iv at 3 hrs post dose by HPLC method", "type": "ADME, organism-based", "conditions": "in vivo"}, "[3]": {"tested_on": "Mus musculus", "assay": "Toxicity in nude mouse xenografted with human OS-RC2 cells assessed as body weight loss at 1.5 mg/kg administered three times a week intravenously and measured on Day 5 (reference value: 1.9 %)", "type": "organism-based", "conditions": "in vivo, iv"}, "[4]": {"tested_on": "OS-RC-2", "assay": "Antitumor activity against human OS-RC2 cells xenografted in nude mouse assessed as reduction in tumor volume at 24 mg/kg, iv administered once weekly measured on day 26 relative to control", "type": "functional"}, "[5]": {"assay": "Tmax in Sprague-Dawley rat at 2.724 mg/kg, iv", "type": "ADME, organism-based", "conditions": "in vivo"}, "[6]": {"tested_on": "OS-RC-2", "assay": "Antitumor activity against human OS-RC2 cells xenografted in nude mouse assessed as tumor growth inhibition at 1.5 mg/kg, iv administered three times a week measured after 32 days relative to control", "type": "functional", "conditions": "OS-RC-2, iv, 768 h, read-out: TGI"}, "[7]": {"tested_on": "Serum", "assay": "Prodrug conversion in rat serum assessed as everolimus formation after 4 hrs by HPLC analysis", "type": "ADME, cell-free"}, "[8]": {"tested_on": "Mus musculus", "assay": "Toxicity in nude mouse xenografted with human OS-RC2 cells assessed as body weight loss at 1.5 mg/kg, iv administered three times a week measured on Day 15 (reference value: 20.2 %)", "type": "organism-based", "conditions": "in vivo"}, "[9]": {"tested_on": "Blood", "assay": "Prodrug conversion in Sprague-Dawley rat blood assessed as everolimus level at 2.724 mg/kg, iv at 8 hrs post dose by HPLC method", "type": "ADME, organism-based", "conditions": "in vivo"}, "[10]": {"tested_on": "OS-RC-2", "assay": "Antitumor activity against human OS-RC2 cells xenografted in nude mouse assessed as tumor volume at 24 mg/kg, iv administered once weekly and measured on day 1 (reference value: 167.51 +/- 17.09 mm3)", "type": "functional"}, "[11]": {"tested_on": "OS-RC-2", "assay": "Antitumor activity against human OS-RC2 cells xenografted in nude mouse assessed as reduction in tumor volume at 1.5 mg/kg, iv administered three times a week measured on day 32 relative to control", "type": "functional"}, "[12]": {"tested_on": "OS-RC-2", "assay": "Antitumor activity against human OS-RC2 cells xenografted in nude mouse assessed as reduction in tumor volume at 24 mg/kg, iv administered once weekly measured on day 15 relative to control", "type": "functional"}, "[13]": {"tested_on": "OS-RC-2", "assay": "Antitumor activity against human OS-RC2 cells xenografted in nude mouse assessed as tumor weight at 1.5 mg/kg, iv administered three times a week measured after 32 days (reference value: 0.68 +/- 0.06 g)", "type": "functional"}, "[14]": {"tested_on": "Blood", "assay": "Prodrug conversion in Sprague-Dawley rat blood assessed as everolimus level at 2.724 mg/kg, iv at 6 hrs post dose by HPLC method", "type": "ADME, organism-based", "conditions": "in vivo"}, "[15]": {"tested_on": "Blood", "assay": "Prodrug conversion in Sprague-Dawley rat blood assessed as everolimus level at 2.724 mg/kg, iv at 24 hrs post dose by HPLC method", "type": "ADME, organism-based", "conditions": "in vivo"}, "[16]": {"tested_on": "Blood", "assay": "Prodrug conversion in Sprague-Dawley rat blood assessed as everolimus level at 2.724 mg/kg, iv at 0.0833 hrs post dose by HPLC method", "type": "ADME, organism-based", "conditions": "in vivo, 5 min"}, "[17]": {"tested_on": "Mus musculus", "assay": "Toxicity in nude mouse xenografted with human OS-RC2 cells assessed as body weight loss at 24 mg/kg, iv administered once weekly measured on day 12 (reference value: 15 %)", "type": "organism-based", "conditions": "in vivo"}, "[18]": {"tested_on": "Mus musculus", "assay": "Toxicity in nude mouse xenografted with human OS-RC-2 cells assessed as body weight loss at 1.5 mg/kg, iv administered three times a week measured after 32 days (reference value: 33%)", "type": "organism-based", "conditions": "in vivo, 768 h"}, "[19]": {"tested_on": "OS-RC-2", "assay": "Antitumor activity against human OS-RC2 cells xenografted in nude mouse assessed as reduction in tumor volume at 24 mg/kg, iv administered once weekly measured on day 29 relative to control", "type": "functional"}, "[20]": {"tested_on": "Mus musculus", "assay": "Toxicity in nude mouse xenografted with human OS-RC-2 cells assessed as body weight loss at 24 mg/kg, iv administered once weekly measured on day 5 (reference value: 1.9%)", "type": "organism-based", "conditions": "in vivo"}, "[21]": {"tested_on": "Blood", "assay": "Prodrug conversion in Sprague-Dawley rat blood assessed as everolimus level at 2.724 mg/kg, iv at 4 hrs post dose by HPLC method", "type": "ADME, organism-based", "conditions": "in vivo"}, "[22]": {"tested_on": "DU-145", "assay": "Antiproliferative activity against human DU145 cells after 48 hrs by MTT assay", "type": "functional, cell-based", "conditions": "DU-145, 48 h"}, "[23]": {"tested_on": "OS-RC-2", "assay": "Antitumor activity against human OS-RC2 cells xenografted in nude mouse assessed as reduction in tumor volume at 1.5 mg/kg, iv administered three times a week measured on day 5 relative to control", "type": "functional"}, "[24]": {"tested_on": "OS-RC-2", "assay": "Antitumor activity against human OS-RC2 cells xenografted in nude mouse assessed as reduction in tumor volume at 24 mg/kg, iv administered once weekly measured on day 8 relative to control", "type": "functional"}, "[25]": {"tested_on": "Mus musculus", "assay": "Toxicity in nude mouse xenografted with human OS-RC2 cells assessed as body weight loss at 24 mg/kg, iv administered once weekly measured on day 22 (reference value: 23.1 %)", "type": "organism-based", "conditions": "in vivo"}, "[26]": {"tested_on": "Blood", "assay": "Prodrug conversion in Sprague-Dawley rat blood assessed as everolimus level at 2.724 mg/kg, iv at 0.25 hrs post dose by HPLC method", "type": "ADME, organism-based", "conditions": "in vivo"}, "[27]": {"tested_on": "Mus musculus", "assay": "Toxicity in nude mouse xenografted with human OS-RC2 cells assessed as body weight loss at 1.5 mg/kg administered three times a week intravenously and measured on Day 29 (reference value: 31.2 %)", "type": "organism-based", "conditions": "in vivo, iv"}, "[28]": {"assay": "Half life in Sprague-Dawley rat at 2.724 mg/kg, iv", "type": "ADME, organism-based", "conditions": "in vivo"}, "[29]": {"tested_on": "OS-RC-2", "assay": "Antitumor activity against human OS-RC2 cells xenografted in nude mouse assessed as reduction in tumor volume at 1.5 mg/kg, iv administered three times a week measured on day 19 relative to control", "type": "functional"}, "[30]": {"tested_on": "MDA-MB-435", "assay": "Antiproliferative activity against human MDA-MB-435 cells after 48 hrs by MTT assay", "type": "functional, cell-based", "conditions": "MDA-MB-435, 48 h"}, "[31]": {"tested_on": "Mus musculus", "assay": "Toxicity in nude mouse xenografted with human OS-RC2 cells assessed as body weight loss at 24 mg/kg, iv administered once weekly measured on day 19 (reference value: 23.1 %)", "type": "organism-based", "conditions": "in vivo"}, "[32]": {"tested_on": "OS-RC-2", "assay": "Antitumor activity against human OS-RC2 cells xenografted in nude mouse assessed as reduction in tumor volume at 24 mg/kg, iv administered once weekly measured on day 22 relative to control", "type": "functional"}, "[33]": {"tested_on": "OS-RC-2", "assay": "Antitumor activity against human OS-RC2 cells xenografted in nude mouse assessed as reduction in tumor volume at 1.5 mg/kg, iv administered three times a week measured on day 8 relative to control", "type": "functional"}, "[34]": {"tested_on": "NCI-H460", "assay": "Antiproliferative activity against human NCI-H460 cells after 48 hrs by MTT assay", "type": "functional, cell-based", "conditions": "NCI-H460, 48 h"}}}
{"smiles": "CO[C@H]1C[C@@H]2CC[C@@H](C)[C@@](O)(O2)C(=O)C(=O)N2CCCC[C@H]2C(=O)O[C@H]([C@H](C)C[C@@H]2CC[C@@H](OCCOC(=O)CSC[C@H](NC(=O)CC[C@H](N)C(=O)O)C(=O)NCC(=O)O)[C@H](OC)C2)CC(=O)[C@H](C)/C=C(\\C)[C@@H](O)[C@@H](OC)C(=O)[C@H](C)C[C@H](C)\\C=C/C=C/C=C/1C", "values": [{"measurement": "Drug metabolism", "setting": "[1]", "value": 326.1655, "unit": "ng/mL"}, {"measurement": "Drug metabolism", "setting": "[2]", "value": 16.9443, "unit": "ng/mL"}, {"measurement": "Activity", "setting": "[3]", "value": 6.8, "unit": "%"}, {"measurement": "T/C", "setting": "[4]", "value": 0.55, "unit": "%"}, {"measurement": "Tmax", "setting": "[5]", "value": 4.98, "unit": "min"}, {"measurement": "inhibition in vivo at 1.5 mg/kg", "setting": "[6]", "value": 57.1, "unit": "%"}, {"measurement": "Drug metabolism", "setting": "[7]", "value": "Metabolite_Detected"}, {"measurement": "Activity", "setting": "[8]", "value": 12, "unit": "%"}, {"measurement": "Drug metabolism", "setting": "[9]", "value": 6.8915, "unit": "ng/mL"}, {"measurement": "Activity", "setting": "[10]", "value": 167.06, "unit": "mm3"}, {"measurement": "T/C", "setting": "[11]", "value": 0.52, "unit": "%"}, {"measurement": "T/C", "setting": "[12]", "value": 0.41, "unit": "%"}, {"measurement": "Activity", "setting": "[13]", "value": 0.29, "unit": "g"}, {"measurement": "Drug metabolism", "setting": "[14]", "value": 8.113, "unit": "ng/mL"}, {"measurement": "Drug metabolism", "setting": "[15]", "value": 2.3295, "unit": "ng/mL"}, {"measurement": "Drug metabolism", "setting": "[16]", "value": 8421.1173, "unit": "ng/mL"}, {"measurement": "Activity", "setting": "[17]", "value": 6.3, "unit": "%"}, {"measurement": "Activity", "setting": "[18]", "value": 12.3, "unit": "%"}, {"measurement": "T/C", "setting": "[19]", "value": 0.54, "unit": "%"}, {"measurement": "Activity", "setting": "[20]", "value": 6.2, "unit": "%"}, {"measurement": "Drug metabolism", "setting": "[21]", "value": 13.8243, "unit": "ng/mL"}, {"measurement": "IC50", "setting": "[22]", "value": 56.2, "unit": "µM"}, {"measurement": "T/C", "setting": "[23]", "value": 0.72, "unit": "%"}, {"measurement": "T/C", "setting": "[24]", "value": 0.41, "unit": "%"}, {"measurement": "Activity", "setting": "[25]", "value": 10.2, "unit": "%"}, {"measurement": "Drug metabolism", "setting": "[26]", "value": 1995.0467, "unit": "ng/mL"}, {"measurement": "Activity", "setting": "[27]", "value": 11.5, "unit": "%"}, {"measurement": "half-life", "setting": "[28]", "value": 138, "unit": "min"}, {"measurement": "T/C", "setting": "[29]", "value": 0.57, "unit": "%"}, {"measurement": "IC50", "setting": "[30]", "value": 55.3, "unit": "µM"}, {"measurement": "Activity", "setting": "[31]", "value": 10.2, "unit": "%"}, {"measurement": "T/C", "setting": "[32]", "value": 0.55, "unit": "%"}, {"measurement": "T/C", "setting": "[33]", "value": 0.57, "unit": "%"}, {"measurement": "IC50", "setting": "[34]", "value": 27.2, "unit": "µM"}]}
